Experimental data taken from US8119630B2 (Arrow Therapeutics Limited, priority 2002, dated 2012).
Where two headings read alike, the source gives them in different places.

Tested on: RSV
Assay: XTT assay, RSV-infected Vero cells
Format: cell-based, Respiratory Syncytial Virus (RSV)
Details: Vero cells infected with RSV, m.o.i.≈0.2, 6 days at 33° C.
Protocol: Examples 1 to 74 and 83 to 124 were tested using the following protocol.
The inner 60 wells of 96 well tissue culture plates were seeded with Vero cells at 3×10^4 cells/well (1×10^4 cells/well for toxicity studies) in 100 or 150 μl of medium and incubated at 37° C. overnight or until nearing confluency. For primary screen, 25 μl compounds were added directly to 100 μl medium in single wells to duplicate plates. A third plate was prepared for simultaneous toxicity investigation.
For follow-up investigation, 70 μl of compound in duplicate wells were added directly to culture medium at 3.2× final concentration and ½ log serially diluted down columns of plate. A duplicate plate was prepared for simultaneous toxicity investigation.
Cells were infected with 25 μl RSV to give m.o.i.≈0.2. Some 100 μl of sterile distilled water were added to the outer wells of the plate and incubated at 33° C. for 6 days. Some 0.25 μl/ml PMS were added to stock XTT solution, final conc. […]. Then 25 μl warmed XTT/PMS solution were added to each well and incubated for 5 hours at 37° C. Plates were shaken (DynaTech Vari-Shaker) vigorously for 10 mins and allowed to cool for 15 mins before sealing. Absorbance at 450 nm was measured and data analysed using Microsoft Excel software.
Maximum OD450nm reading (uninfected, untreated control cells) corresponded to 100% inhibition. Minimum OD450nm readings (infected control cells) corresponded to 0% inhibition. Log 10 concentration was plotted against OD450nm and IC50 (Table 1) values were calculated from either reading 50% value from graph or using regression analysis.

[1] = human respiratory syncytial virus, Vero, 144 h, read-out: XTT IC50 (uM), Table 1

SMILES | IC50 [1] | IC50 (Table 1, read-out: XTT IC50)
CCN(CC)C(=O)NC1N=C(c2ccccc2)c2ccccc2NC1=O (stereo not drawn) [Example 2, 1,1-Diethyl-3-(2-oxo-5-phenyl-2,3-dihydro 1H-benzo[e][1,4]diazepin-3-yl)-urea] | 4 µM | –
CCC(=O)NC1N=C(c2ccccc2)c2ccccc2NC1=O (stereo not drawn) [Example 3, N-(2-Oxo-5-phenyl-2,3-dihydro-1H-benzo[e][1,4]diazepin-3-yl)-propionamide] | 2.5 µM | –
CCCC(=O)NC1N=C(c2ccccc2)c2ccccc2NC1=O (stereo not drawn) [Example 4, N-(2-Oxo-5-phenyl-2,3-dihydro-1H-benzo[e][1,4]diazepin-3-yl)-butyramide] | 5 µM | –
CC(C)C(=O)NC1N=C(c2ccccc2)c2ccccc2NC1=O (stereo not drawn) [Example 5, N-(2-Oxo-5-phenyl-2,3-dihydro-1H-benzo[e][1,4]diazepin-3-yl)-isobutyramide] | 2.5 µM | –
CC(C)(C)C(=O)NC1N=C(c2ccccc2)c2ccccc2NC1=O (stereo not drawn) [Example 6, 2,2-Dimethyl-N-(2-Oxo-5-phenyl-2,3-dihydro-1H-benzo[e][1,4]diazepin-3-yl)-propionamide] | 6 µM | –
O=C(NC1N=C(c2ccccc2)c2ccccc2NC1=O)C1CCCC1 (stereo not drawn) [Example 7, Cyclopentanecarboxylic acid (2-oxo-5-phenyl-2,3-dihydro-1H-benzo[e][1,4]diazepin-3-yl)-amide] | 2 µM | –
O=C(NC1N=C(c2ccccc2)c2ccccc2NC1=O)C1CCCCC1 (stereo not drawn) [Example 8] | – | 2 µM
COc1ccc(C(=O)NC2N=C(c3ccccc3)c3ccccc3NC2=O)cc1 (stereo not drawn) [Example 10, 4-Methoxy N-(2-oxo-5-phenyl-2,3-dihydro-1H-benzo[e][1,4]diazepin-3-yl)-benzamide] | – | 1.5 µM
COc1ccccc1C(=O)NC1N=C(c2ccccc2)c2ccccc2NC1=O (stereo not drawn) [Example 11, 2-Methoxy N-(2-oxo-5-phenyl-2,3-dihydro-1H-benzo[e][1,4]diazepin-3-yl)-benzamide] | – | 0.5 µM
O=C(NC1N=C(c2ccccc2)c2ccccc2NC1=O)c1cccc(C(F)(F)F)c1 (stereo not drawn) [Example 12, N-(2-Oxo-5-phenyl-2,3-dihydro-1H-benzo[e][1,4]diazepin-3-yl)-3-trifluoromethyl-benzamide] | 2.5 µM | –
O=C(NC1N=C(c2ccccc2)c2ccccc2NC1=O)c1ccccc1 (stereo not drawn) [Example 13, N-(2-Oxo-5-phenyl-2,3-dihydro-1H-benzo[e][1,4]diazepin-3-yl)-benzamide] | 1.5 µM | –
O=C(NC1N=C(c2ccccc2)c2ccccc2NC1=O)c1cccs1 (stereo not drawn) [Example 14, Thiophene-2-carboxylic acid (2-oxo-5-phenyl-2,3-dihydro-1H-benzo[e][1,4]diazepin-3-yl)-3-amide] | – | 1.5 µM
O=C(NC1N=C(c2ccccc2)c2ccccc2NC1=O)c1ccco1 (stereo not drawn) [Example 15, Furan-2-carboxylic acid (2-oxo-5-phenyl-2,3-dihydro-1H-benzo[e][1,4]diazepin-3-yl)-amide] | 1 µM | –
O=C1Nc2ccccc2C(c2ccccc2)=NC1NC(=O)N1CCCCC1 (stereo not drawn) [Example 16] | – | 2 µM
O=C1Nc2ccccc2C(c2ccccc2)=NC1NC(=O)N1CCOCC1 (stereo not drawn) [Example 17, Morpholine-4-carboxylic acid (2-oxo-5-phenyl-2,3-dihydro-1H-benzo[e][1,4]diazepin-3-yl)-amide] | 5 µM | –
O=C(NC1N=C(c2ccccc2)c2ccccc2NC1=O)c1ccc([N+](=O)[O-])cc1 (stereo not drawn) [Example 18, 4-Nitro-N-(2-oxo-5-phenyl-2,3-dihydro-1H-benzo[e][1,4]diazepin-3-yl)-benzamide] | 2 µM | –
CN1CCN(C(=O)NC2N=C(c3ccccc3)c3ccccc3NC2=O)CC1 (stereo not drawn) [Example 20, 4-Methyl-piperazine-1-carboxylic acid-(2-oxo-5-phenyl-2,3-dihydro-1H-benzo[e][1,4]diazepin-3-yl)-amide] | 25 µM | –
O=C(NC1N=C(c2ccccc2)c2ccccc2NC1=O)c1ccc(Cl)c(Cl)c1 (stereo not drawn) [Example 21, 3,4-Dichloro-N-(2-oxo-5-phenyl-2,3-dihydro-1H-benzo[e][1,4]diazepin-3-yl)-benzamide] | 6 µM | –
O=C(NC1N=C(c2ccccc2)c2ccccc2NC1=O)c1ccccc1C(F)(F)F (stereo not drawn) [Example 22, N-(2-oxo-5-phenyl-2,3-dihydro-1H-benzo[e][1,4]diazepin-3-yl)-2-trifluoromethyl-benzamide] | 4 µM | –
O=C(NC1N=C(c2ccccc2)c2ccccc2NC1=O)c1ccc(Br)cc1 (stereo not drawn) [Example 23, 4-Bromo-N-(2-oxo-5-phenyl-2,3-dihydro-1H-benzo[e][1,4]diazepin-3-yl)-benzamide] | 5 µM | –

SMILES | IC50 [1] | IC50 (Table 1, read-out: XTT IC50)
Cc1ccccc1C(=O)NC1N=C(c2ccccc2)c2ccccc2NC1=O (stereo not drawn) [Example 24, 2-Methyl-N-(2-oxo-5-phenyl-2,3-dihydro-1H-benzo[e][1,4]diazepin-3-yl)-benzamide] | 3 µM | –
O=C(NC1N=C(c2ccccc2)c2ccccc2NC1=O)c1ccccc1Cl (stereo not drawn) [Example 25, 2-Chloro-N-(2-oxo-5-phenyl-2,3-dihydro-1H-benzo[e][1,4]diazepin-3-yl)-benzamide] | 2 µM | –
O=C(NC1N=C(c2ccccc2)c2ccccc2NC1=O)c1ccccc1[N+](=O)[O-] (stereo not drawn) [Example 26, 2-Nitro-N-(2-oxo-5-phenyl-2,3-dihydro-1H-benzo[e][1,4]diazepin-3-yl)-benzamide] | 2 µM | –
COc1cc([N+](=O)[O-])ccc1C(=O)NC1N=C(c2ccccc2)c2ccccc2NC1=O (stereo not drawn) [Example 27a, 2-Methoxy-4-nitro-N-(2-oxo-5-phenyl-2,3-dihydro-1H-benzo[e][1,4]diazepin-3-yl)-benzamide] | 0.3 µM | –
COc1cc([N+](=O)[O-])ccc1C(=O)N[C@H]1N=C(c2ccccc2)c2ccccc2NC1=O [Example 27b, (S)-2-Methoxy-4-nitro-N-(2-oxo-5-phenyl-2,3-dihydro-1H-benzo[e][1,4]diazepin-3-yl)-benzamide] | < 0.3 µM | –
O=C(NC1N=C(c2ccccc2)c2ccccc2NC1=O)c1csc2ccccc12 (stereo not drawn) [Example 28, Benzo[b]thiophene-3-carboxylic acid (2-oxo-5-phenyl-2,3-dihydro-1H-benzo[e][1,4]diazepin-3-yl)-amide] | 5 µM | –
O=C(NC1N=C(c2ccccc2)c2ccccc2NC1=O)c1ccc2c(c1)CCO2 (stereo not drawn) [Example 29, 2,3-Dihydro-benzofuran-5-carboxylic acid (2-oxo-5-phenyl-2,3-dihydro-1H-benzo[e][1,4]diazepin-3-yl)-amide] | 2 µM | –
O=C(NC1N=C(c2ccccc2)c2ccccc2NC1=O)c1ccno1 (stereo not drawn) [Example 30, Isoxazole-5-carboxylic acid (2-oxo-5-phenyl-2,3-dihydro-1H-benzo[e][1,4]diazepin-3-yl)-amide] | 3 µM | –
O=C(NC1N=C(c2ccccc2)c2ccccc2NC1=O)c1cc2ccccc2s1 (stereo not drawn) [Example 31, Benzo[b]thiophene-2-carboxylic acid (2-oxo-5-phenyl-2,3-dihydro-1H-benzo[e][1,4]diazepin-3-yl)-amide] | 5 µM | –
O=C(NC1N=C(c2ccccc2)c2ccccc2NC1=O)c1ccsc1 (stereo not drawn) [Example 32, Thiophen-3-carboxylic acid (2-oxo-5-phenyl-2,3-dihydro-1H-benzo[e][1,4]diazepin-3-yl)-amide] | 2 µM | –
O=C(NC1N=C(c2ccccc2)c2ccccc2NC1=O)c1ccncc1 (stereo not drawn) [Example 33, N-(2-Oxo-5-phenyl-2,3-dihydro-1H-benzo[e][1,4]diazepin-3-yl)-isonicotinamide] | 2.5 µM | –
O=C(NC1N=C(c2ccccc2)c2ccccc2NC1=O)c1cccnc1 (stereo not drawn) [Example 34, N-(2-Oxo-5-phenyl-2,3-dihydro-1H-benzo[e][1,4]diazepin-3-yl)-nicotinamide] | 3 µM | –
CS(=O)(=O)NC1N=C(c2ccccc2)c2ccccc2NC1=O (stereo not drawn) [Example 35, N-(2-Oxo-5-phenyl-2,3-dihydro-1H-benzo[e][1,4]diazepin-3-yl)methanesulfonamide] | 6 µM | –
CCCS(=O)(=O)NC1N=C(c2ccccc2)c2ccccc2NC1=O (stereo not drawn) [Example 36] | – | 15 µM
CCCCS(=O)(=O)NC1N=C(c2ccccc2)c2ccccc2NC1=O (stereo not drawn) [Example 37, Butane-1-sulfonic acid-(2-oxo-5-phenyl-2,3-dihydro-H-benzo[e][1,4]diazepin-3-yl)-amide] | – | 15 µM
O=C1Nc2ccccc2C(c2ccccc2)=NC1NS(=O)(=O)c1ccccc1Br (stereo not drawn) [Example 38, 2-Bromo-N-(2-oxo-5-phenyl-2,3-dihydro-1H-benzo[e][1,4]diazepin-3-yl)-benzenesulfonamide] | 6 µM | –
O=C1Nc2ccccc2C(c2ccccc2)=NC1NS(=O)(=O)c1cccc(Br)c1 (stereo not drawn) [Example 39, 3-Bromo-N-(2-oxo-5-phenyl-2,3-dihydro-1H-benzo[e][1,4]diazepin-3-yl)-benzenesulfonamide] | 10 µM | –
O=C1Nc2ccccc2C(c2ccccc2)=NC1NS(=O)(=O)c1ccc(Br)cc1 (stereo not drawn) [Example 40, 4-Bromo-N-(2-oxo-5-phenyl-2,3-dihydro-1H-benzo[e][1,4]diazepin-3-yl)-benzenesulfonamide] | 10 µM | –
O=C1Nc2ccccc2C(c2ccccc2)=NC1NS(=O)(=O)c1ccccc1F (stereo not drawn) [Example 41, 2-Fluoro-N-(2-oxo-5-phenyl-2,3-dihydro-1H-benzo[e][1,4]diazepin-3-yl)-benzenesulfonamide] | 10 µM | –
